Several values for one entry are separate records, joined by “and”; a condition that tells them apart may be missing. Equal entries are not always repeated.
Biological target: Transient receptor potential cation channel subfamily A member 1 (Homo sapiens, UniProt O75762)
Assay: Antagonist activity at human TRPA1 expressed in HEK293 cells assessed as inhibition of CA-induced increase in calcium influx incubated for 10 mins prior to CA addition by Fluo-4-AM dye based fluorescence assayy

Transient receptor potential cation channel subfamily A member 1, sequence (O75762 whole entry): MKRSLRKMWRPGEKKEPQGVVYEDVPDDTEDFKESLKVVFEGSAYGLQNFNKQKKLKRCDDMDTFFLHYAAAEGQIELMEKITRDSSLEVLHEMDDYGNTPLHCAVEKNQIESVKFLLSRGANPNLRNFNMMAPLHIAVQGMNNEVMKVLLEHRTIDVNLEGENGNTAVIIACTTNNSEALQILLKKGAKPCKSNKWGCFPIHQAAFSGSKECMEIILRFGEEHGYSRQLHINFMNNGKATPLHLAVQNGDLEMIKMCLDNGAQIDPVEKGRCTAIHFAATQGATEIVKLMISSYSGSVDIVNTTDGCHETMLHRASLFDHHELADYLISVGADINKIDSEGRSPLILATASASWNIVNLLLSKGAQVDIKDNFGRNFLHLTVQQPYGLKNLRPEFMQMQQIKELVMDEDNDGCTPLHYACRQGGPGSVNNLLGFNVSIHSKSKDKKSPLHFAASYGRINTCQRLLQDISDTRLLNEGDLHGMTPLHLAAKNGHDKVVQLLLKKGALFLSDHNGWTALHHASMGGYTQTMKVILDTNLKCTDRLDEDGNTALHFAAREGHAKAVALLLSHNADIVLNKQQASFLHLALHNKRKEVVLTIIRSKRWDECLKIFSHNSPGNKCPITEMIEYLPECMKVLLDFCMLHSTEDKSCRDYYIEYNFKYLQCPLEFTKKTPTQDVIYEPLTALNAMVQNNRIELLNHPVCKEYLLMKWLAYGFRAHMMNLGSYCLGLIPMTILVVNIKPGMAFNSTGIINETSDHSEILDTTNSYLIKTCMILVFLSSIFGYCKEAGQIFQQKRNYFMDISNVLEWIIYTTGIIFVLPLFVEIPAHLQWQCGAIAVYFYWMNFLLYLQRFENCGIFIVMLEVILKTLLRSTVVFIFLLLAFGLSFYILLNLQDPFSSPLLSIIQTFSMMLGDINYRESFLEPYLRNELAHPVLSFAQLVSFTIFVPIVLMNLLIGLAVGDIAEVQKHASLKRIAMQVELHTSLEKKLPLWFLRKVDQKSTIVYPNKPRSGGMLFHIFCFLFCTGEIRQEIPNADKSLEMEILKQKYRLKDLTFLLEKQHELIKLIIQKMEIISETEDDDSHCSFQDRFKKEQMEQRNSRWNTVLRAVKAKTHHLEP

Compound	IC50
O=C(/C=C/c1ccc(Br)cc1)Nc1ccccc1C(=O)O	10 µM
CC(=Cc1ccc(Cl)cc1)C(C)N=O (configuration not stated) [4-(4-chlorophenyl)-3-methylbut-3-en-2-one oxime]	4.47 µM and 4.46 µM

Reference: BindingDB's records for doi:10.1016/j.ejmech.2019.02.074 (University of Hull, 2019)
